This assay concerns EGFR. Kind of assay: EGFR phosphorylation in MDA-MB-468 breast cancer cell line. The format is cell-based. Particulars: FIG. 2. As to the method:
Allowed A431 cell growth in a T75 flask using standard tissue culture procedures until cells reach near confluency (˜1.5×10^7) cells; D-MEM, 10% FBS). Under sterile conditions dispensed 100 μl of the cell suspension per well in 96-well microplates (x cells plated per well). Incubated cells and monitor cell density until confluency is achieved with well-to-well consistency; approximately three days. Removed complete media from plate wells by aspiration or manual displacement. Replaced media with 50 μl of pre-warmed serum free media per well and incubated 4 to 16 hours. Made two fold serial dilutions of inhibitor using pre-warmed D-MEM so that the final concentration of inhibitor range from 10 μM to 90 pM. Removed media from A431 cell plate. Added 100 μl of serial diluted inhibitor into cells and incubate 1 to 2 hours. Removed inhibitor from plate wells by aspiration or manual displacement. Added either serum free media for resting cells (mock) or serum free media with 100 ng/ml EGF. Used 100 μl of resting/activation media per well. Allowed incubation at 37° C. for 7.5 minutes. Removed activation or stimulation media manually or by aspiration. Immediately fixed cells with 4% formaldehyde in 1×PBS. […] Determined the ratio of […] protein (700/800) using Odyssey software and plot the results in Graphpad Prism (V4.0a).

Take `C#Cc1cccc(Nc2ncnc3cc(OC)c(OCCCCCCC(=O)NO)cc23)c1` [Compound 12, 7-(4-(3-ethynylphenylamino)-7-methoxyquinazolin-6-yloxy)-N-hydroxyheptanamide]: the “inhibition of EGFR phosphorylation compared with Erlotinib” value is listed as “improvement in inhibition”.

(Values after US8119616B2, “Formulation of quinazoline based EGFR inhibitors containing a zinc binding moiety” (Curis, Inc., priority 2007, dated 2012).)
